# Publication PMC3667675 (ChemMedChem, 2011)
# Square brackets hold non-standard residues; d marks the D form. Peptide text beside a SMILES is read from it.
# What was measured:
# KOR [1] = experiment: Radioligand binding assay, cloned KOR in CHO cell membranes, [3H]diprenorphine; conditions: read-out: Ki (nM ± SEM) KOR, mean ± SEM
# MOR [2] = assay type: binding; conditions: read-out: Ki (nM ± SEM) MOR; CHO membranes, [3H]DAMGO, mean ± SEM
# DOR = experiment: Radioligand binding assay, cloned DOR in CHO cell membranes, [3H]DPDPE; conditions: read-out: Ki (nM ± SEM) DOR, mean ± SEM
# KOR [3] = experiment: Ligand-stimulated [35S]GTPγS binding assay, KOR expressing CHO cell membranes; assay type: biochemical; conditions: ratio of KB values
# MOR [4] = biological target: MOR (Rattus norvegicus, UniProt P33535); experiment: biochemical
# MOR (Rattus norvegicus, UniProt P33535), sequence (P33535 whole entry): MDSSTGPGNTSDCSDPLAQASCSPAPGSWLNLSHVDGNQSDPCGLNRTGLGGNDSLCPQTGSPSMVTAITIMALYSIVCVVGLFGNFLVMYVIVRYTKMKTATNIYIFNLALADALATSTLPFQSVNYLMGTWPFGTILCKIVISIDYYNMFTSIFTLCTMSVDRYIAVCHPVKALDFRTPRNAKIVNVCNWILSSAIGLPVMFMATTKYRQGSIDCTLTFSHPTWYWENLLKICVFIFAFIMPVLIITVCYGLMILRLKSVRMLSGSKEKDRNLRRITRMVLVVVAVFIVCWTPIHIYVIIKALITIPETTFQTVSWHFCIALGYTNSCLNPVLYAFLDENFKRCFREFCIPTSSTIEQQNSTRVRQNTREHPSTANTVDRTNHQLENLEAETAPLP
# C57Bl/6J mice = assay type: in vivo
# opioid receptors = assay type: in vivo, C57Bl/6J mice
# KOR [5] = biological target: KOR (Mus musculus, UniProt P33534); assay type: in vivo, C57Bl/6J mice; conditions: U50,488 10 mg/kg i.p.; 3 h pretreatment
# KOR (Mus musculus, UniProt P33534), sequence (P33534 whole entry): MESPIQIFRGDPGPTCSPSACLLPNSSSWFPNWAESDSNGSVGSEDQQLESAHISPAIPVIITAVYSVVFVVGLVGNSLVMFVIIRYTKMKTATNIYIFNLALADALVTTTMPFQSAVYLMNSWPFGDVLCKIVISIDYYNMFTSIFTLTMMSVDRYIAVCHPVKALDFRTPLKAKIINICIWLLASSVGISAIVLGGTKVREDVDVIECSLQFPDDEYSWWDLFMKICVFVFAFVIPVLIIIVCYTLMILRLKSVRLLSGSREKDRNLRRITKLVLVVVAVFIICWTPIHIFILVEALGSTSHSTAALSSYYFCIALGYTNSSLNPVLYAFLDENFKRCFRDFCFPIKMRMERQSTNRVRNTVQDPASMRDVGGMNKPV
smiles,measurement,setting,value
"C[C@@H]1NC(=O)[C@H](Cc2c[nH]c3ccccc23)NC(=O)[C@H](Cc2ccccc2)NC(=O)[C@H]2CCCN2C1=O [Peptide 2, cyclo[Ala-DPro-Phe-Trp]] (cyclo(A[dP]FW))",Ki,KOR [1],8.03 ± 1.67 nM
same,Ki,MOR [2],32.1 ± 3.9 nM
same,Ki,DOR,8680 ± 1270 nM
same,KOR antagonist potency relative to parent peptide 1 (more potent),KOR [3],25 fold
same,Kb,MOR [4],7.3 ± 1.6 nM
same,Time of peak antinociceptive response,C57Bl/6J mice; after i.c.v. administration,30 min
same,"ED50 (and 95% confidence interval), antinociception","C57Bl/6J mice; i.c.v., at peak response, C57Bl/6J mice",1.49 (0.39-7.41) nmol
same,Effect of naloxone pretreatment on peptide antinociception,"opioid receptors; naloxone 15 nmol i.c.v., 25 min prior, peptides 2 (3 nmol), 3 (10 nmol), 4 (0.3 nmol), 5 (30 nmol) i.c.v.",significantly antagonized
same,Reduction of antinociceptive activity by nor-BNI pretreatment,"opioid receptors; nor-BNI 10 mg/kg i.p., did not reach statistical significance",> 30%
same,KOR antagonist potency in vivo compared with parent peptide 1,KOR [5],somewhat more potent
